From patent US11198687B2, “Heteroaryl allosteric modulators of nicotinic acetylcholine receptors” (Merck Sharp & Dohme Corp., priority 2017, dated 2021)
Where two headings read alike, the source gives them in different places.

Target: human α7 nAChR (Homo sapiens, UniProt P36544)
Experiment: Automated patch-clamp electrophysiology functional assay (Assay A)
Format: cell-based
Settings: IonFlux HT whole-cell population patch, HEK cell line stably expressing human RIC-3 and human α7, 40 μM acetylcholine
Procedure: The α7 nAChR positive allosteric modulator (PAM) activity of the present compounds may be tested using assays known in the art. […] The assay was performed using the IonFlux HT in a whole-cell, population patch configuration. See Golden et al. Assay Drug Dev. Technol. (2011) 9:608-619. The compounds were assessed for their ability to modulate the function of the human α7 nAChR stably expressed in a HEK cell line both in the presence, and in the absence of the natural α7 agonist acetylcholine. By performing a series of such measurements at different concentrations, the effective concentration of the α7 nAChR PAMs (EC50) was determined. See Spencer et al. Assay Drug Dev. Technol. (2012) 10:313-324.
Direct activation of α7 (agonism), and potentiation of acetylcholine-evoked α7 currents was determined as follows:
Automated Patch-Clamp Electrophysiology Functional Assay (Assay A)
Automated patch-clamp electrophysiology was performed using the IonFlux HT (Fluxion Biosciences Inc., San Francisco, Calif.) in the whole-cell, population patch configuration. Test compounds were assessed for their ability to modulate the function of the α7 nicotinic acetylcholine receptor both in the presence, and in the absence of the natural α7 agonist acetylcholine. A HEK cell line stably expressing both human RIC-3 and human α7 (PrecisION hnAChR α7/RIC-3, Eurofins Pharma, St. Charles, Mo.) was cultured in 175 cm^2 triple-layer tissue culture flasks to no more than 90% confluency in DMEM/F-12 growth media supplemented with 10% heat-inactivated fetal bovine serum, 1% non-essential amino acids, 0.625 μg/mL Puromycin, and 400 μg/mL Geneticin. Immediately prior to assay, cells were detached by first aspirating growth media, rinsing with Dulbecco's phosphate buffered saline, and then adding 10 mL of Accutase (Innovative Cell Technologies, San Diego, Calif.) to the flask and then incubating at 37° C. for 5 minutes. Detached cells were then recovered by the addition of 40 mL of CHO-serum-free media supplemented with 25 mM HEPES, and rocked gently in a 50 mL conical tube for 20 minutes prior to patch-clamp assay. […] The cell suspension was added to the cell inlet wells on an IonFlux HT population patch plate which had previously been rinsed and primed with deionized H2O. Test compounds were serially diluted in DMSO and then resuspended to the final test concentration in external recording solution, with, or without 40 μM acetylcholine added to the external recording solution; test compounds were then transferred to the lonFlux HT population patch plate. Internal recording solution (110 mM TrisPO4, 28 mM TrisBase, 0.1 mM CaCl2, 2 mM MgCl2, 11 mM EGTA, 4 mM MgATP) was added to the internal recording solution inlet wells on the IonFlux HT patch plate previously loaded with cells and test compounds, and the plate loaded into the IonFlux HT instrument. A protocol was executed on the IonFlux HT to trap the cells, break into the cells, and establish the whole-cell recording configuration; cells were voltage-clamped at a holding potential of −60 mV for the duration of the experiment, all experiments were conducted at room temperature, and the IonFlux HT injection pressure was 8 psi for solution applications. Upon establishing the whole-cell configuration, external recording solution was perfused into the recording chambers for 120 seconds and then 40 μM acetylcholine was applied for 1 second and immediately washed off with external recording solution for 60 seconds. The 40 μM acetylcholine-evoked α7 current served as the current response to which subsequent test compound effects, in the presence, or in the absence of 40 μM acetylcholine would be quantified relative to. Next, test compounds were evaluated at multiple concentrations for their ability to induce, or modulate α7 current responses; three concentrations of test compound were evaluated in ascending dose fashion per recording.

Sequence of human α7 nAChR (P36544 23-502): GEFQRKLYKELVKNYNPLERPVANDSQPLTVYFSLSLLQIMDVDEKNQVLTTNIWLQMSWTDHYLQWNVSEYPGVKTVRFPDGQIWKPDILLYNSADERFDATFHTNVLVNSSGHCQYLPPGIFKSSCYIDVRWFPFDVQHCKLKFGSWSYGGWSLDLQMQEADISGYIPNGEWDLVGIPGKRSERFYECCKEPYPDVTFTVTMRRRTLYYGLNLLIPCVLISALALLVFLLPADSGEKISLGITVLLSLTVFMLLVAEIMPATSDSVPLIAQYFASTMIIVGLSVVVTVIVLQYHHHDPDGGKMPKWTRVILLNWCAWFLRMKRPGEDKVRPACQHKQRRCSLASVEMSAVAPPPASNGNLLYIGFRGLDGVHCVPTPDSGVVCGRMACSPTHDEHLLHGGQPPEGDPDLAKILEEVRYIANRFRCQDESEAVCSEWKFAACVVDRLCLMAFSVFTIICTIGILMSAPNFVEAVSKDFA

Row | Molecule | EC50 (read-out: α7 nAChR EC50) | EC50 (read-out: α7 nAChR Potency)
1 | 6-[trans-3-(1,3-Benzoxazol-2-yl)-2,2-dimethylcyclopropyl]pyridine-3-sulfonamide [Example G1] | 0.9 µM | 0.5 to 5 µM
2 | CC1(C)[C@@H](c2ccc(S(N)(=O)=O)nc2)[C@@H]1c1noc(-c2c(F)ccc(F)c2F)n1 (racemic) [Example C1, 5-{trans-2,2-Dimethyl-3-[5-(2,3,6-trifluorophenyl)-1,2,4-oxadiazol-3-yl]cyclopropyl}pyridine-2-sulfonamide] | 0.58 µM | 0.5 to 5 µM
3 | CC1(C)[C@@H](c2ccc(S(N)(=O)=O)nc2)[C@@H]1c1noc(C2CCCC2)n1 (racemic) [Example C2, 5-[trans-3-(5-Cyclopentyl-1,2,4-oxadiazol-3-yl)-2,2-dimethylcyclopropyl]pyridine-2-sulfonamide] | 0.92 µM | 0.5 to 5 µM
4 | CC1(C)C(c2ccc(S(N)(=O)=O)nc2)C1c1cc(-c2cccc(F)c2)no1 (racemic) [Example C3, 5-{trans-3-[3-(3-Fluorophenyl)isoxazol-5-yl]-2,2-dimethylcycpropyl}pyridine-2-sulfonamide] | 0.43 µM | 0.1 to 0.5 µM
5 | CC1(C)C(c2ccc(S(N)(=O)=O)nc2)C1c1nc2ccccc2o1 (racemic) [Example C4, 5-[trans-3-(1,3-Benzoxazol-2-yl)-2,2-dimethylcyclopropyl]pyridine-2-sulfonamide] | 5.1 µM | 5 to 50 µM
6 | NS(=O)(=O)c1ccc(C2CC2c2nc(-c3ccccc3)no2)cn1 (racemic) [Example C5, 5-[trans-2-(3-Phenyl-1,2,4-oxadiazol-5-yl)cyclopropyl]pyridine-2-sulfonamide] | 1.1 µM | 0.5 to 5 µM
7 | CC1(C)[C@@H](c2ccc(S(N)(=O)=O)nc2)[C@@H]1c1nc(-c2ccccc2)no1 (racemic) [Example C6, 5-[trans-2,2-Dimethyl-3-(3-phenyl-1,2,4-oxadiazol-5-yl)cyclopropyl]pyridine-2-sulfonamide] | – | 0.5 to 5 µM
8 | NS(=O)(=O)c1ccc([C@@H]2C[C@H]2c2nc(-c3cccc(F)c3)no2)cn1 (racemic) [Example C8, 5-{trans-2-[3-(3-Fluorophenyl)-1,2,4-oxadiazol-5-yl]cyclopropyl}pyridine-2-sulfonamide] | 0.39 µM | 0.1 to 0.5 µM
9 | NS(=O)(=O)c1ccc([C@@H]2C[C@H]2c2nc(C3CCCC3)no2)cn1 (racemic) [Example C9, 5-[trans-2-(3-Cyclopentyl-1,2,4-oxadiazol-5-yl)cyclopropyl]pyridine-2-sulfonamide] | – | 0.5 to 5 µM
10 | CC1(C)[C@@H](c2ccc(S(N)(=O)=O)nc2)[C@@H]1c1noc(C2CCCCC2)n1 (racemic) [Example C10, 5-[trans-3-(5-Cyclohexyl-1,2,4-oxadiazol-3-yl)-2,2-dimethylcyclopropyl]pyridine-2-sulfonamide] | 2.1 µM | 0.5 to 5 µM
11 | CC1(C)[C@@H](c2ccc(S(N)(=O)=O)nc2)[C@@H]1c1noc(C2(C(F)(F)F)CC2)n1 (racemic) [Example C11, 5-(trans-2,2-Dimethyl-3-{5-[1-(trifluoromethyl)cyclopropyl]-1,2,4-oxadiazol-3-yl}cyclopropyl)pyridine-2-sulfonamide] | 1.5 µM | 0.5 to 5 µM
12 | CC1(C)[C@@H](c2ccc(S(N)(=O)=O)nc2)[C@@H]1c1noc(-c2c(F)cccc2F)n1 (racemic) [Example C12, 5-{trans-3-[5-(2,6-Difluorophenyl)-1,2,4-oxadiazol-3-yl]-2,2-dimethylcyclopropyl}pyridine-2-sulfonamide] | 1.2 µM | 0.5 to 5 µM
13 | CC1(C)[C@@H](c2nc3ccccc3o2)[C@@H]1c1ncc(S(N)(=O)=O)s1 (racemic) [Example D1, 2-[trans-3-(1,3-Benzoxazol-2-yl)-2,2-dimethylcyclopropyl]-1,3-thiazole-5-sulfonamide] | 2 µM | 0.5 to 5 µM
14 | CC1(C)[C@@H](c2nc(C3CCC3)no2)[C@@H]1c1ncc(S(N)(=O)=O)s1 (racemic) [Example D2, 2-[trans-3-(3-Cyclobutyl-1,2,4-oxadiazol-5-yl)-2,2-dimethylcyclopropyl]-1,3-thiazole-5-sulfonamide] | 1.2 µM | 0.5 to 5 µM
15 | CC1(C)[C@@H](c2nc(-c3cncc(F)c3)no2)[C@@H]1c1ncc(S(N)(=O)=O)s1 (racemic) [Example D3, 2-{trans-3-[3-(5-Fluoropyridin-3-yl)-1,2,4-oxadiazol-5-yl]-2,2-dimethylcyclopropyl}-1,3-thiazole-5-sulfonamide] | 1.6 µM | 0.5 to 5 µM
16 | CC1(C)[C@@H](c2nc(-c3ccccc3)no2)[C@@H]1c1ncc(S(N)(=O)=O)s1 (racemic) [Example D4, 2-[trans-2,2-Dimethyl-3-(3-phenyl-1,2,4-oxadiazol-5-yl)cyclopropyl]-1,3-thiazole-5-sulfonamide] | 0.36 µM | 0.1 to 0.5 µM
17 | CC(C)c1noc([C@H]2[C@H](c3ncc(S(N)(=O)=O)s3)C2(C)C)n1 (racemic) [Example D5, 2-{trans-2,2-Dimethyl-3-[3-(propan-2-yl)-1,2,4-oxadiazol-5-yl]cyclopropyl}-1,3-thiazole-5-sulfonamide] | 4.2 µM | 0.5 to 5 µM
18 | CC1(C)[C@@H](c2nc(C3CC(F)(F)C3)no2)[C@@H]1c1ncc(S(N)(=O)=O)s1 (racemic) [Example D6, 2-{trans-3-[3-(3,3-Difluorocyclobutyl)-1,2,4-oxadiazol-5-yl]-2,2-dimethylcyclopropyl}-1,3-thiazole-5-sulfonamide] | – | 5 to 50 µM
19 | COc1ccc(Cl)cc1-c1noc([C@H]2[C@H](c3ncc(S(N)(=O)=O)s3)C2(C)C)n1 (racemic) [Example D7, 2-{trans-3-[3-(5-Chloro-2-methoxyphenyl)-1,2,4-oxadiazol-5-yl]-2,2-dimethylcyclopropyl}-1,3-thiazole-5-sulfonamide] | 1.2 µM | 0.5 to 5 µM
20 | NS(=O)(=O)c1cnc([C@@H]2C[C@H]2c2nc(-c3ccccc3)no2)s1 (racemic) [Example D8, 2-[trans-2-(3-Phenyl-1,2,4-oxadiazol-5-yl)cyclopropyl]-1,3-thiazole-5-sulfonamide] | 1 µM | 0.5 to 5 µM
21 | CC1(C)[C@@H](c2ccc(S(N)(=O)=O)cn2)[C@@H]1c1nc(-c2ccccc2)no1 (racemic) [Example G2, 6-[trans-2,2-Dimethyl-3-(3-phenyl-1,2,4-oxadiazol-5-yl)cyclopropyl]pyridine-3-sulfonamide] | 0.97 µM | 0.5 to 5 µM
22 | CC(C)c1noc([C@H]2[C@H](c3ccc(S(N)(=O)=O)cn3)C2(C)C)n1 (racemic) [Example G3, 6-{trans-2,2-Dimethyl-3-[3-(propan-2-yl)-1,2,4-oxadiazol-5-yl]cyclopropyl}pyridine-3-sulfonamide] | – | 0.5 to 5 µM
23 | CC1(C)[C@@H](c2ccc(S(N)(=O)=O)cn2)[C@@H]1c1nc(C2CCC2)no1 (racemic) [Example G4, 6-[trans-3-(3-Cyclobutyl-1,2,4-oxadiazol-5-yl)-2,2-dimethylcyclopropyl]pyridine-3-sulfonamide] | – | 0.5 to 5 µM
24 | CC1(C)[C@@H](c2ccc(S(N)(=O)=O)cn2)[C@@H]1c1nc(C2CC(F)(F)C2)no1 (racemic) [Example G5, 6-{trans-3-[3-(3,3-Difluorocyclobutyl)-1,2,4-oxadiazol-5-yl]-2,2-dimethylcyclopropyl}pyridine-3-sulfonamide] | 3.6 µM | 0.5 to 5 µM
25 | NS(=O)(=O)c1ccc([C@@H]2C[C@H]2c2nc(-c3ccccc3)no2)nc1 (racemic) [Example G6, 6-[trans-2-(3-Phenyl-1,2,4-oxadiazol-5-yl)cyclopropyl]pyridine-3-sulfonamide] | 1.3 µM | 0.5 to 5 µM
